Results taken from patent US5488055A, “Substituted N-cycloalkylmethyl-1H-pyrazolo(3,4-b)quinolin-4 amines and compositions and methods of use thereof” (Sanofi Winthrop Inc., priority 1995, dated 1996).
Where two headings read alike, the source gives them in different places. Each block holds one molecule with its values, some of them ahead of it.

Legend:
[1] = system: cGMP-PDE V; test: c-GMP-PDE V inhibitory activity; assay type: biochemical, various animal species and man
Protocol: The cGMP-PDE and other PDE isozymes were isolated from cardiovascular tissues (heart and aorta) of various animal species and man by anion-exchange and affinity chromatography as described by Silver et al., Sec. Messeng. Phos. 13:13-25, 1991; PDE activity, in the presence and absence of test compounds was determined essentially as described by Thompson et al., Adv. Cyclic Nucleotide Res. 10:69-92. To determine the potency and selectivity of compounds as PDE inhibitors, compounds are screened for their effect on cyclic nucleotide hydrolysis at 10 μM. […] The IC50 values are calculated from concentration-response curves as described by Tallarida and Murray, Manual of Pharmacologic Calculations with Computer Programs, Procedure 8, Graded Dose-response, pp. 14-19, Springer-Verlag, New York, 1981.

[2] = system: Spontaneously hypertensive rats (SHR); test: Antihypertensive activity in spontaneously hypertensive rats, iv; assay type: in vivo, rat
Protocol: After a 2 day recovery from surgery, three baseline blood pressure measurements were made at 5 min intervals in conscious SHR. Compounds to be tested or vehicle were then administered intravenously in a dose-dependent manner (0.3-10 mg base/kg) while arterial pressure was recorded continuously on a polygraph. The mean arterial pressure response was measured 5 minutes after the administration of each dose of the test compound and the next dose given in a cumulative dose fashion. The response to each dose of the test compound was calculated as the difference from the mean of the three baseline measurements.

[3] = Rattus norvegicus, 5 min, cumulative dosing, 5 minutes after dose, read-out: % change in mean arterial pressure
[4] = separate experimental runs, first value
[5] = separate experimental runs, second value
[6] = separate experimental runs, third value

Structure (SMILES): CCn1ncc2c(NCC3CCCCC3)c3ccccc3nc21 [1(c), 1-ethyl-N-(cyclohexylmethyl)-1H-pyrazolo[3,4-b]quinolin-4-amine]
IC50 [1]: 83 nM
change in vivo at 10 mg/kg [2, 3]: -15%

Structure (SMILES): CCn1ncc2c(NCC3CCC(CO)CC3)c3ccccc3nc21 (centres unmarked) [6(b), 1-ethyl-N-[(4-hydroxymethylcyclohexyl)methyl]-1H-pyrazolo[3,4-b]quinolin-4-amine]
IC50 [1]: 120 nM
change in vivo at 10 mg/kg [2, 3]: -23%

Structure (SMILES): CCn1ncc2c(NCC3CCCCC3)c3cc(OC)ccc3nc21 [7(d), 1-ethyl-6-methoxy-N-(cyclohexylmethyl)-1H-pyrazolo[3,4-b]quinolin-4-amine]
IC50 [1]: 33 nM
change in vivo at 3 mg/kg [2, 3]: -16%

Structure (SMILES): CCn1ncc2c(NCC3CCCCC3)c3cc([N+](=O)[O-])ccc3nc21 [15(c), 1-ethyl-6-nitro-N-(cyclohexylmethyl) -1H-pyrazolo[3,4-b]quinolin-4-amine]
IC50 [1]: 1.5 nM
change in vivo at 3 mg/kg [2, 3]: -18%

Structure (SMILES): CCn1ncc2c(NCC3CCCCC3)c3cc(OCC(O)CO)ccc3nc21 (centres unmarked) [17(b), 1-ethyl-6-(2,3-dihydroxypropoxy)-N-(cyclohexylmethyl)-1H-pyrazolo[3,4-b]quinolin-4-amine]
IC50 [1]: 130 nM
change in vivo at 10 mg/kg [2, 3]: -6%

Structure (SMILES): CCn1ncc2c(NCC3CCCCC3)c3ccc(C(=O)O)cc3nc21 [23(c), 1-ethyl-7-carboxy-N-(cyclohexylmethyl)-1H-pyrazolo[3,4-b]quinolin-4-amine]
IC50 [1]: 38 nM
change in vivo at 3 mg/kg [2, 3]: -7%

Structure (SMILES): CCn1ncc2c(N[C@@H](C)C3CCCCC3)c3cc(S(C)(=O)=O)ccc3nc21 [37(d), 1-ethyl-6-(methylsulfonyl)-N-[S(+)-1-(cyclohexyl)ethyl]-1H-pyrazolo[3,4-b]quinolin-4-amine]
IC50 [1, 4]: 8.3 nM
IC50 [1, 5]: 11.5 nM
change in vivo at 3 mg/kg [2, 3]: -15%
change in vivo at 10 mg/kg [2, 3]: -18%

Structure (SMILES): CCn1ncc2c(NCC3CCCCC3)c3cccc(Br)c3nc21 [44(d), 1-ethyl-8-bromo-N-(cyclohexylmethyl)-1H-pyrazolo[3,4-b]quinolin-4-amine]
Percent Inhibition cGMP-PDE V ([1]; 0.01 μM): 17%
Percent Inhibition cGMP-PDE V ([1]; 0.1 μM): 20%
Percent Inhibition cGMP-PDE V ([1]; 1 μM): 70%

Structure (SMILES): CCN(CC)S(=O)(=O)c1ccc2nc3c(cnn3C(C)C)c(NCC3CCCCC3)c2c1 [45(d), 1-isopropyl-6-(diethylaminosulfonyl)-N-(cyclohexylmethyl)-1H-pyrazolo[3,4-b]quinolin-4-amine]
IC50 [1]: 44 nM

Structure (SMILES): CCn1ncc2c(N[C@@H](C)C3CCCCC3)c3cc(-c4noc(C)n4)ccc3nc21 [47(c)]
IC50 [1]: 23 nM

Structure (SMILES): CCn1ncc2c(N[C@@H](C)C3CCCCC3)c3cc(S(=O)(=O)C(F)(F)F)ccc3nc21 [53(c), 1-ethyl-6-(trifluoromethylsulfonyl)-N-[S (+)-1-(cyclohexyl)ethyl]-1H-pyrazolo[3,4-b]quinolin-4-amine]
IC50 [1]: 5.4 nM

Structure (SMILES): CCn1ncc2c(NCC3CCC(C(=O)OC)CC3)c3ccccc3nc21 (centres unmarked) [Example 3, 1-ethyl-N-[(4-methoxycarbonylcyclohexyl)methyl]-1H-pyrazolo[3,4-b]quinolin-4-amine]
IC50 [1]: 300 nM

Structure (SMILES): CCn1ncc2c(NCC3CC3)c3ccccc3nc21 [Example 4, 1-ethyl-N-(cyclopropylmethyl)-1H-pyrazolo[3,4-b]quinolin-4-amine]
IC50 [1]: 3000 nM

Structure (SMILES): CCn1ncc2c(NCC3CCC(C(=O)OCSC)CC3)c3ccccc3nc21 (centres unmarked) [Example 5, 1-ethyl-N-[[4-(methylthiomethoxycarbonyl)cyclohexyl]methyl]-1H-pyrazolo[3,4-b]quinolin-4-amine]
Percent Inhibition cGMP-PDE V ([1]; 0.1 μM): 4%
Percent Inhibition cGMP-PDE V ([1]; 1 μM): 34%
Percent Inhibition cGMP-PDE V ([1]; 10 μM): 81%

Structure (SMILES): CCn1ncc2c(NCC3CCCCC3)c3cc(O)ccc3nc21 [Example 8, 1-ethyl-6-hydroxy-N-(cyclohexylmethyl)-1H-pyrazolo[3,4-b]quinolin-4-amine]
IC50 [1]: 36 nM
% change in mean arterial pressure or ED25, result in words ([2]; 0.3-10 mg base/kg): Inactive

Structure (SMILES): CCn1ncc2c(NCC3CCCCC3)c3ccc(N)cc3nc21 [Example 25, 1-ethyl-7-amino-N-(cyclohexylmethyl)-1H-pyrazolo[3,4-b]quinolin-4-amine]
Percent Inhibition cGMP-PDE V ([1]; 0.1 μM): 7%
Percent Inhibition cGMP-PDE V ([1]; 1 μM): 68%
Percent Inhibition cGMP-PDE V ([1]; 10 μM): 95%

Structure (SMILES): CCn1ncc2c(NCC3(O)CCCCC3)c3cc(OC)ccc3nc21 [Example 32, 1-ethyl-6-methoxy-N-[(1-hydroxycyclohexyl)methyl]-1H-pyrazolo[3,4-b]quinolin-4-amine]
Percent Inhibition cGMP-PDE V ([1]; 0.1 μM): 43%
Percent Inhibition cGMP-PDE V ([1]; 1 μM): 79%
Percent Inhibition cGMP-PDE V ([1]; 10 μM): 96%

Structure (SMILES): C[C@H](Nc1c2ccccc2nc2c1cnn2Cc1ccccc1)C1CCCCC1 [Example 38, 1-benzyl-N-[S (+)-1(cyclohexyl)ethyl]-1H-pyrazolo[3,4-b]quinolin-4-amine]
Percent Inhibition cGMP-PDE V ([1]; 0.01 μM): 9%
Percent Inhibition cGMP-PDE V ([1]; 0.1 μM): 22%
Percent Inhibition cGMP-PDE V ([1]; 1 μM): 77%

Structure (SMILES): C=Cc1ccc2nc3c(cnn3CC)c(N[C@@H](C)C3CCCCC3)c2c1 [Example 55, 1-ethyl-6-(ethenyl)-N-[S(+)-1(cyclohexyl)ethyl]-1H-pyrazolo[3,4-b]quinolin-4-amine]
Percent Inhibition cGMP-PDE V ([1]; 0.001 μM): 58%
Percent Inhibition cGMP-PDE V ([1]; 0.01 μM): 91%
Percent Inhibition cGMP-PDE V ([1]; 0.1 μM): 96%

Now from value to molecule, other results behind:

IC50 [1]: 240 nM
Structure (SMILES): CCn1ncc2c(NCC3CCCCC3)c3cc(OCCN(C)C)ccc3nc21 [Example 12]

IC50 [1]: 42 nM
Structure (SMILES): CCn1ncc2c(NCC3CCCCC3)c3cc(OCC(=O)O)ccc3nc21 [Example 13, 1-ethyl-6-(carboxymethoxy)-N-(cyclohexymethyl)-1H-pyrazolo[3,4-b]quinolin-4-amine]
change in vivo at 1 mg/kg ([2]; Rattus norvegicus, 5 min, 1 mg/kg, cumulative dosing, 5 minutes after dose, read-out: % change in mean arterial pressure): -10%

IC50 [1]: 300 nM
Structure (SMILES): CCn1ncc2c(NCC3CCCCC3)c3cc(N)ccc3nc21 [Example 20, 1-ethyl-6-amino-N-(cyclohexylmethyl)-1H-pyrazolo[3,4-b]quinolin-4-amine]

IC50 [1, 4]: 2.6 nM
IC50 [1, 5]: 5.2 nM
Structure (SMILES): CCn1ncc2c(N[C@@H](C)C3CCCCC3)c3cc(OC)ccc3nc21 [Example 26, 1-ethyl-6-methoxy-N-[S(+)-1-(cyclohexyl)ethyl]-1H-pyrazolo[3,4-b]quinolin-4-amine]

IC50 [1, 4]: 340 nM
IC50 [1, 5]: 210 nM
IC50 [1, 6]: 266 nM
Structure (SMILES): CCn1ncc2c(N[C@H](C)C3CCCCC3)c3cc(OC)ccc3nc21 [Example 27, 1-ethyl-6-methoxy-N-[R(-)-1-(cyclohexyl)ethyl]-1H-pyrazolo[3,4-b]quinolin-4-amine]

IC50 [1]: 30 nM
Structure (SMILES): CCn1ncc2c(NCC3CCCCC3)c3cc(C(=O)O)ccc3nc21 [Example 30, 1-ethyl-6-carboxy-N-(cyclohexylmethyl)-1H-pyrazolo[3,4-b]quinolin-4-amine]

IC50 [1]: 32 nM
Structure (SMILES): CCn1ncc2c(NCC3CCCCC3)c3cc(-c4ccncc4)ccc3nc21 [Example 31]

IC50 [1]: 92 nM
Structure (SMILES): CCn1ncc2c(NCC3CCCCC3)c3cc(OCCN4CCOCC4)ccc3nc21 [Example 33, 1-ethyl-6-[2-(4-morpholinyl)ethoxy]-N-(cyclohexylmethyl)-1H-pyrazolo[3,4-b]quinolin-4-amine]

IC50 [1, 4]: 8.6 nM
IC50 [1, 5]: 9.5 nM
IC50 [1, 6]: 9.5 nM
Structure (SMILES): CCn1ncc2c(N[C@H](C)C3CCCCC3)c3cc([N+](=O)[O-])ccc3nc21 [Example 35, 1-ethyl-6-nitro-N-[R (-)-1(cyclohexyl)ethyl]-1H-pyrazolo[3,4-b]quinolin-4amine]

IC50 [1]: 15 nM
Structure (SMILES): CCn1ncc2c(N[C@@H](C)C3CCCCC3)c3ccccc3nc21 [Example 39, 1-ethyl-N-[S(+)-1-(cyclohexyl)ethyl]-1H-pyrazolo[3,4-b]quinolin-4-amine]

IC50 [1]: 27 nM
Structure (SMILES): CCn1ncc2c(N[C@@H](C)C3CCCCC3)c3cc(-n4ccnc4)ccc3nc21 [Example 43, 1-ethyl-6-(1-imidazolyl)-N-[S(+)-1-(cyclohexyl)ethyl]-1H-pyrazolo[3,4-b]quinolin-4-amine]

IC50 [1]: 0.37 nM
Structure (SMILES): CCn1ncc2c(N[C@@H](C)C3CCCCC3)c3cc(Br)ccc3nc21 [Example 46, 1-ethyl-6-bromo-N-[S(+)-1-(cyclohexyl)ethyl]-1H-pyrazolo[3,4-b]quinolin-4-amine]

IC50 [1]: 18 nM
Structure (SMILES): CCn1ncc2c(NCC3CCCCC3)c3cc([S+](C)[O-])ccc3nc21 (centres unmarked) [Example 49, 1-ethyl-6-(methylsulfinyl)-N-(cyclohexylmethyl)-1H-pyrazolo[3,4-b]quinolin-4-amine]

IC50 [1]: 9.1 nM
Structure (SMILES): CCn1ncc2c(N[C@@H](C)C3CCCCC3)c3cc(-n4cc(C)cn4)ccc3nc21 [Example 50, 1-ethyl-6-(4-methyl-1-pyrazolyl)-N-[S(+)-1-(cyclohexyl)ethyl]-1H-pyrazolo[3,4-b]quinolin-4-amine]

IC50 [1, 4]: 0.2 nM
IC50 [1, 5]: 0.27 nM
Structure (SMILES): CCn1ncc2c(N[C@@H](C)C3CCCCC3)c3cc(-n4cccn4)ccc3nc21 [Example 52, 1-ethyl-6-(1-pyrazolyl)-N-[S(+)-1-(cyclohexyl)ethyl]-1H-pyrazolo[3,4-b]quinolin-4-amine]

IC50 [1, 4]: 5.9 nM
IC50 [1, 5]: 8.8 nM
Structure (SMILES): CC[C@H](Nc1c2cc([N+](=O)[O-])ccc2nc2c1cnn2CC)C1CCCCC1 [Example 54, 1-ethyl-6-nitro-N-[S(+)-1-(cyclohexyl)propyl]-1H-pyrazolo[3,4-b]quinolin-4-amine]
